# Assay results published in patent US20030055405A1, “Iontophoretic Drug Delivery Device and Reservoir and Method of Making Same” (Vyteris, Inc., priority 1993, published 2003).
# Assay: Shelf stability of the loaded reservoir electrode assembly in storage
# Assay type: physicochemical
# Conditions: incorporated into the reservoir
# Source text: In the present example, an aqueous loading solution of 30% lidocaine HCI, 3% epinephrine, 30% glycerin, 0.05% sodium metabisulfite, 0.03% ethylene diamine tetraacetic acid, and 0.06% citric acid are used for the loading solution. The medicaments for delivery are lidocaine HCI and epinephrine, the glycerin serves as a humectant, the other minor components serve to enhance drug stability by chelating metal ions and serving as antioxidants. In order to load this solution onto the reservoir with electrode 112, laminate release liner 132 is removed from side 118 of reservoir 114 and a three-hundred microliter aliquot of this loading solution is applied to exposed surface 118, which is then covered with a final cover that remains in place until the reservoir is applied to a patient to protect the reservoir.
smiles,measurement,value
"CNC[C@H](O)c1ccc(O)c(O)c1 [epinephrine, Epinephrine Bitartrate]",shelf stability of labile medicament,satisfactory shelf stability
